The results in this text go back to patent US9895349B2, “N-phenyl-carboxamide derivatives and the use thereof as medicaments for the treatment of hepatitis B” (priority 2013, dated 2018).

Structures are written as SMILES. Some results are limits rather than exact numbers.

The test system of data set [1] is HBV. Kind of data set: Anti-HBV activity, HepG2.2.15 stable transfected cell line, HBV DNA from secreted virions by realtime PCR. It counts as cell-based, Hepatitis B virus (HBV). To be noted: HepG2.2.15 cells, 6 days of treatment.
The test system of data set [2] is HBV. Kind of data set: Anti-HBV activity, HepG2.117 inducibly HBV producing cell line (Tet-off), intracellular HBV DNA by realtime PCR. In kind it is cell-based, Hepatitis B virus (HBV). To be noted: HepG2.117 cells, 3 days of treatment.
Data set [3] can be described thus: Cytotoxicity in HepG2 cells, Resazurin assay. To be noted: human. For orientation: The colour change of resazurin is a common sign of viable cells or microbes.
Setting [4] is: Hepatitis B virus, HepG2.2.15, 144 h.
The mark [5] stands for this setting: Hepatitis B virus, HepG2.117, 72 h.

One may read the EC50 as the midpoint of the concentration-response curve. Low values mean higher potency in that assay, high ones lower potency in that assay. A word on the CC50: it is the concentration that lowers cell viability or growth by half. As for `Cc1cc(NC(=O)[C@H]2CCN(S(=O)(=O)NC(C)CC#N)C2)ccc1F` (stereo partly drawn) [Compound 40, (3S)-1-[(2-cyano-1-methyl-ethyl)sulfamoyl]-N-(4-fluoro-3-methyl-phenyl)pyrrolidine-3-carboxamide], the EC50 in the data set on HBV [1] (setting [4]) turned out to be 290 nM; with HBV [2] (setting [5]), 120 nM. The same compound yielded a CC50 at 4 days in data set [3] of over 25000 nM.
Compound `Cc1cc(NC(=O)[C@H]2CCN(S(=O)(=O)N[C@H](C)CO)C2)ccc1F` [Compound 39, (3S)—N-(4-fluoro-3-methyl-phenyl)-1-[[(1R)-2-hydroxy-1-methyl-ethyl]sulfamoyl]pyrrolidine-3-carboxamide] registered a 50% effective concentration (EC50) in the data set on HBV [2] (setting [5]) of 150 nM. The same compound came in with a CC50 at 4 days in data set [3] of over 25000 nM.
For `Cc1cc(NC(=O)[C@H]2CCN(C(=O)OCC(C)C)C2)ccc1F` [Compound 26, isobutyl (3S)-3-[(4-fluoro-3-methyl-phenyl)carbamoyl]pyrrolidine-1-carboxylate], the concentration giving a half-maximal response (EC50) in the data set with HBV [1] (setting [4]) worked out at 4400 nM; in the data set with HBV [2] (setting [5]), 410 nM. For the same compound, the CC50 at 4 days in data set [3] is over 25000 nM.
On to `Cc1cc(NC(=O)C2(F)CCN(S(=O)(=O)NC(C)C)C2)ccc1F` (racemic) [Compound 35a, 3-fluoro-N-(4-fluoro-3-methyl-phenyl)-1-(isopropylsulfamoyl)pyrrolidine-3-carboxamide], for which the EC50 in the data set with HBV [1] came to 563 nM; with HBV [2], 228 nM. In addition, in data set [3], the CC50 at 4 days is over 25000 nM.
For the compound `Cc1cc(NC(=O)C2(F)CCN(S(=O)(=O)N[C@H]3CCOC3)C2)ccc1F` (single isomer, unassigned) [Compound 42a], the EC50 with HBV [1] (setting [4]) and in the data set on HBV [2] was over 5000 nM throughout. The same compound came in with a 50% cytotoxic concentration (CC50) at 4 days in data set [3] of over 25000 nM.
Consider `Cc1cc(NC(=O)[C@H]2CCN(S(=O)(=O)N[C@@H]3c4ccccc4C[C@H]3O)C2)ccc1F` [Compound 37, (3S)—N-(4-fluoro-3-methyl-phenyl)-1-[[(1R,2R)-2-hydroxyindan-1-yl]sulfamoyl]pyrrolidine-3-carboxamide], for which the EC50 was 270 nM in the data set on HBV [1] (setting [4]) and 530 nM in the data set with HBV [2] (setting [5]). Moreover, in data set [3], the CC50 at 4 days is over 25000 nM.
Consider `Cc1cc(NC(=O)[C@H]2CCN(S(=O)(=O)C3CCOCC3)C2)ccc1F` [Compound 9, (3S)—N-(4-fluoro-3-methyl-phenyl)-1-tetrahydropyran-4-ylsulfonyl-pyrrolidine-3-carboxamide], for which the concentration giving a half-maximal response (EC50) with HBV [1] (setting [4]) worked out at 1400 nM; with HBV [2] (setting [5]), 950 nM. Moreover, in data set [3], the CC50 at 4 days is over 25000 nM.
The like results for `CC1(NS(=O)(=O)N2CC[C@H](C(=O)Nc3ccc(F)c(F)c3)C2)COC1` [Compound 44, (3S)—N-(3,4-difluorophenyl)-1-[(3-methyloxetan-3-yl)sulfamoyl]pyrrolidine-3-carboxamide] were, in that order, 610 nM, 420 nM and over 25000 nM.
Take `Cc1cc(NC(=O)[C@H]2CCN(S(=O)(=O)CC3CC3)C2)ccc1F` [Compound 8, (3S)-1-(cyclopropylmethylsulfonyl)-N-(4-fluoro-3-methyl-phenyl)pyrrolidine-3-carboxamide]: the values for the EC50 with HBV [1] (setting [4]) and with HBV [2] (setting [5]) were 580 nM and 330 nM, respectively. Besides, in data set [3], the CC50 at 4 days was over 25000 nM.
As for `Cc1cc(NC(=O)[C@@H]2CCN(S(=O)(=O)CC(C)C)C2)ccc1F` [Compound 3, (3R)—N-(4-fluoro-3-methyl-phenyl)-1-isobutylsulfonyl-pyrrolidine-3-carboxamide], the results for the EC50 in the data set with HBV [1] (setting [4]) and in the data set with HBV [2] (setting [5]) were over 25000 nM and 1490 nM, respectively. Also, in data set [3], the CC50 at 4 days is over 25000 nM.
As for `O=C(Nc1ccc(F)c(F)c1)[C@H]1CCN(S(=O)(=O)N[C@H]2CCOC2)C1` [Compound 46, (3S)—N-(3,4-difluorophenyl)-1-[[(3S)-tetrahydrofuran-3-yl]sulfamoyl]pyrrolidine-3-carboxamide], the values for the EC50 in the data set with HBV [1] (setting [4]) and in the data set with HBV [2] (setting [5]) were 600 nM and 240 nM, respectively. The CC50 at 4 days in data set [3] was over 25000 nM.
With `Cc1cc(NC(=O)[C@H]2CCN(S(=O)(=O)N[C@H]3CCOC3)C2)ccc1F` [Compound 33, (3S)—N-(4-fluoro-3-methyl-phenyl)-1-[[(3S)-tetrahydrofuran-3-yl]sulfamoyl]pyrrolidine-3-carboxamide], the figures for the EC50 in the data set on HBV [1] (setting [4]) and in the data set with HBV [2] (setting [5]) were 150 nM and 75 nM, respectively. In addition, in data set [3], the CC50 at 4 days was over 25000 nM.
As to `CCC1CC1S(=O)(=O)N1CC[C@H](C(=O)Nc2ccc(F)c(C)c2)C1` (stereo partly drawn) [Compound 24, (3S)-1-(2-ethylcyclopropyl)sulfonyl-N-(4-fluoro-3-methyl-phenyl)pyrrolidine-3-carboxamide], the EC50 with HBV [1] (setting [4]) was 500 nM; in the data set on HBV [2] (setting [5]) it was 330 nM. In data set [3], this compound yielded a CC50 at 4 days of over 25000 nM.
The like results for `CCCS(=O)(=O)N1CC[C@H](C(=O)Nc2ccc(F)c(C)c2)C1` [Compound 6, (3S)—N-(4-fluoro-3-methyl-phenyl)-1-propylsulfonyl-pyrrolidine-3-carboxamide] were, in that order, 1900 nM, 620 nM and over 25000 nM.
The like results for `Cc1cc(NC(=O)[C@H]2CCN(S(=O)(=O)NC(C)CNC(=O)OC(C)(C)C)C2)ccc1F` (stereo partly drawn) [Compound 38, tert-butyl N-[2-[[(3S)-3-[(4-fluoro-3-methyl-phenyl)carbamoyl]pyrrolidin-1-yl]sulfonylamino]propyl]carbamate] were, in that order, 3650 nM, 2070 nM and over 25000 nM.
Consider `Cc1cc(NC(=O)[C@H]2CCN(S(=O)(=O)NC3CC(=O)N(C)C3)C2)ccc1F` (stereo partly drawn) [Compound 50, (3S)—N-(4-fluoro-3-methyl-phenyl)-1-[(1-methyl-5-oxo-pyrrolidin-3-yl)sulfamoyl]pyrrolidine-3-carboxamide], for which the EC50 with HBV [1] (setting [4]) came to 350 nM; in the data set on HBV [2] (setting [5]), 460 nM. For the same compound, in data set [3], the CC50 at 4 days is over 25000 nM.
In the case of `Cc1cc(NC(=O)C2(C)CCN(S(=O)(=O)CC(C)C)C2)ccc1F` (racemic) [Compound 29, N-(4-fluoro-3-methyl-phenyl)-1-isobutylsulfonyl-3-methyl-pyrrolidine-3-carboxamide], the results for the EC50 in the data set on HBV [1] (setting [4]) and in the data set with HBV [2] were 13700 nM and 18900 nM, respectively. The compound also gave a CC50 at 4 days in data set [3] of over 25000 nM.
`Cc1cc(NC(=O)[C@@H]2CN(S(=O)(=O)NC(C)C)C[C@H]2C)ccc1F` (relative stereo) [Compound 41, trans-N-(4-fluoro-3-methyl-phenyl)-1-(isopropylsulfamoyl)-4-methyl-pyrrolidine-3-carboxamide]: the figures for the EC50 in the data set on HBV [1] (setting [4]) and in the data set on HBV [2] (setting [5]) were 530 nM and 420 nM, respectively. In data set [3], this compound returned a CC50 at 4 days of over 25000 nM.
With `Cc1cc(NC(=O)[C@H]2CCN(S(=O)(=O)NC(C)C)C2)ccc1F` [Compound 32, (3S)—N-(4-fluoro-3-methyl-phenyl)-1-(isopropylsulfamoyl)pyrrolidine-3-carboxamide], the EC50 in the data set on HBV [1] (setting [4]) was found to be 180 nM; in the data set on HBV [2] (setting [5]), 120 nM. Moreover, the CC50 at 4 days in data set [3] was over 25000 nM.
For `Cc1cc(NC(=O)[C@H]2CCN(S(=O)(=O)CC(C)C)C2)ccc1F` [Compound 2, (3S)—N-(4-fluoro-3-methyl-phenyl)-1-isobutylsulfonyl-pyrrolidine-3-carboxamide], the EC50 is 1320 nM with HBV [1] (setting [4]) and 310 nM with HBV [2] (setting [5]). Moreover, in data set [3], the CC50 at 4 days is over 25000 nM.
The like results for `Cc1cc(NC(=O)[C@@]23C[C@@H]2CN(S(=O)(=O)CC(C)C)C3)ccc1F` [Compound 27, (1S,5S)—N-(4-fluoro-3-methyl-phenyl)-3-isobutylsulfonyl-3-azabicyclo[3.1.0]hexane-1-carboxamide] were, in that order, 2800 nM, 2000 nM and over 25000 nM.
